Reference: PubChem BioAssay AID1963866 (Molecular Pharmacology Branch, DTP, NCI, 2024)

System: PDC KRAS tumor spheroids with HUVEC/MSC, viability
Test: Anticancer human tumor 349418-098-R-PDC patient-derived lung adenocarcinoma cell line growth inhibition [KRAS2]
Settings: for IC50: curve of first compound; for viability, T/C: stronger effect = lower value
In short: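 KRAS-mutant tumor cells were grown as spheroids with HUVEC endothelial cells and human MSCs as stroma. Targeted agents were tested alone and with KRAS pathway inhibitors. Doses started at or near clinical Cmax, or 10 microM, descending half-log.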

[1] = second compound 0.1 µM, first compound 0.0316 µM
[2] = second compound 0.1 µM, first compound 0.1 µM
[3] = second compound 0.1 µM, first compound 0.316 µM
[4] = second compound 0.1 µM, first compound 1 µM
[5] = second compound 0.1 µM, first compound 3.16 µM
[6] = second compound 0.1 µM, first compound 10 µM
[7] = second compound 0.316 µM, first compound 0.0316 µM
[8] = second compound 0.316 µM, first compound 0.1 µM
[9] = second compound 0.316 µM, first compound 0.316 µM
[10] = second compound 0.316 µM, first compound 1 µM
[11] = second compound 0.316 µM, first compound 3.16 µM
[12] = second compound 0.316 µM, first compound 10 µM
[13] = second compound 1 µM, first compound 0.0316 µM
[14] = second compound 1 µM, first compound 0.1 µM
[15] = second compound 1 µM, first compound 0.316 µM
[16] = second compound 1 µM, first compound 1 µM
[17] = second compound 1 µM, first compound 3.16 µM
[18] = second compound 1 µM, first compound 10 µM
[19] = second compound 3.16 µM, first compound 0.0316 µM
[20] = second compound 3.16 µM, first compound 0.1 µM
[21] = second compound 3.16 µM, first compound 0.316 µM
[22] = second compound 3.16 µM, first compound 1 µM
[23] = second compound 3.16 µM, first compound 3.16 µM
[24] = second compound 3.16 µM, first compound 10 µM
[25] = second compound 10 µM, first compound 0.0316 µM
[26] = second compound 10 µM, first compound 0.1 µM
[27] = second compound 10 µM, first compound 0.316 µM
[28] = second compound 10 µM, first compound 1 µM
[29] = second compound 10 µM, first compound 3.16 µM
[30] = second compound 10 µM, first compound 10 µM
[31] = second compound 0.1 µM, first compound 0.000316 µM
[32] = second compound 0.1 µM, first compound 0.001 µM
[33] = second compound 0.1 µM, first compound 0.00316 µM
[34] = second compound 0.1 µM, first compound 0.01 µM
[35] = second compound 0.316 µM, first compound 0.000316 µM
[36] = second compound 0.316 µM, first compound 0.001 µM
[37] = second compound 0.316 µM, first compound 0.00316 µM
[38] = second compound 0.316 µM, first compound 0.01 µM
[39] = second compound 1 µM, first compound 0.000316 µM
[40] = second compound 1 µM, first compound 0.001 µM
[41] = second compound 1 µM, first compound 0.00316 µM
[42] = second compound 1 µM, first compound 0.01 µM
[43] = second compound 3.16 µM, first compound 0.000316 µM
[44] = second compound 3.16 µM, first compound 0.001 µM
[45] = second compound 3.16 µM, first compound 0.00316 µM
[46] = second compound 3.16 µM, first compound 0.01 µM
[47] = second compound 10 µM, first compound 0.000316 µM
[48] = second compound 10 µM, first compound 0.001 µM
[49] = second compound 10 µM, first compound 0.00316 µM
[50] = second compound 10 µM, first compound 0.01 µM
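Note: spheroids exposed to compounds for seven days before readout.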

| SMILES | IC50 (second compound 0.1 µM) [nM] | IC50 (second compound 0.316 µM) [nM] | IC50 (second compound 1 µM) [nM] | IC50 (second compound 3.16 µM) [nM] | IC50 (second compound 10 µM) [nM] | viability, T/C [1] [%] | viability, T/C [2] [%] | viability, T/C [3] [%] | viability, T/C [4] [%] | viability, T/C [7] [%] | viability, T/C [8] [%] | viability, T/C [9] [%] | viability, T/C [10] [%] | viability, T/C [13] [%] | viability, T/C [14] [%] | viability, T/C [15] [%] | viability, T/C [19] [%] | viability, T/C [20] [%] | viability, T/C [25] [%] | viability, T/C [26] [%] | further results |
| --- | --- | --- | --- | --- | --- | --- | --- | --- | --- | --- | --- | --- | --- | --- | --- | --- | --- | --- | --- | --- | --- |
| CC(C)NCC(C(=O)N1CCN(c2ncnc3c2C(C)CC3O)CC1)c1ccc(Cl)cc1 (stereo not given) + CNCc1ccccc1-c1csc(C(C)Nc2nc(C)nc3cc(OC)c(OC)cc23)c1 | 257 | 208 | 106 | < 31.6 | < 31.6 | 95 | 88 | 39.6 | 22.7 | 96.5 | 68.6 | 39.3 | 19.7 | 79.1 | 52.3 | 16.3 | 0.09 | 0.11 | 0.08 | 0.08 | viability, T/C [5]: 14.1%; viability, T/C [6]: 6.42%; viability, T/C [11]: 12.6%; viability, T/C [12]: 6.01%; viability, T/C [16]: 9.95%; viability, T/C [17]: 1.69%; viability, T/C [18]: 3.8%; viability, T/C [21]: 0.03%; viability, T/C [22]: 0.03%; viability, T/C [23]: 0.27%; viability, T/C [24]: 0.09%; viability, T/C [27]: 0.07%; viability, T/C [28]: 0.25%; viability, T/C [29]: 0.07%; viability, T/C [30]: 0.13% |
| CC(C)n1nc(-c2ccc3oc(N)nc3c2)c2c(N)ncnc21 + CNCc1ccccc1-c1csc(C(C)Nc2nc(C)nc3cc(OC)c(OC)cc23)c1 | 0.987 | 0.883 | 0.558 | < 0.316 | < 0.316 | 8.36 | 7.55 | – | – | 7.42 | 6.91 | – | – | 5.59 | 6.98 | – | 0.06 | 0.13 | 0.09 | 0.15 | viability, T/C [31]: 103%; viability, T/C [32]: 49.1%; viability, T/C [33]: 20.9%; viability, T/C [34]: 8.09%; viability, T/C [35]: 106%; viability, T/C [36]: 43.2%; viability, T/C [37]: 13.3%; viability, T/C [38]: 8.02%; viability, T/C [39]: 73.1%; viability, T/C [40]: 26.3%; viability, T/C [41]: 9.14%; viability, T/C [42]: 7.12%; viability, T/C [43]: 0.08%; viability, T/C [44]: 0.18%; viability, T/C [45]: 0.03%; viability, T/C [46]: 0.06%; viability, T/C [47]: 0.08%; viability, T/C [48]: 0.08%; viability, T/C [49]: 0.07%; viability, T/C [50]: 0.09% |
| CC1(C)CCC(CN2CCN(c3ccc(C(=O)NS(=O)(=O)c4ccc(NCC5CCOCC5)c([N+](=O)[O-])c4)c(Oc4cnc5[nH]ccc5c4)c3)CC2)=C(c2ccc(Cl)cc2)C1 + CNCc1ccccc1-c1csc(C(C)Nc2nc(C)nc3cc(OC)c(OC)cc23)c1 | 1790 | 1690 | 1280 | < 31.6 | < 31.6 | 101 | 99.7 | 94.6 | 89.7 | 97 | 96.4 | 87 | 82.6 | 74.1 | 66.9 | 72 | 0.13 | 0.14 | 0.11 | 0.12 | viability, T/C [5]: 11.3%; viability, T/C [6]: 5.21%; viability, T/C [11]: 11.5%; viability, T/C [12]: 3.91%; viability, T/C [16]: 61.6%; viability, T/C [17]: 6.96%; viability, T/C [18]: 2.51%; viability, T/C [21]: 0.11%; viability, T/C [22]: 0.12%; viability, T/C [23]: 0.12%; viability, T/C [24]: 0.15%; viability, T/C [27]: 0.1%; viability, T/C [28]: 0.09%; viability, T/C [29]: 0.08%; viability, T/C [30]: 0.15% |
| CCN1CCN(Cc2ccc(Nc3ncc(F)c(-c4cc(F)c5nc(C)n(C(C)C)c5c4)n3)nc2)CC1 + CNCc1ccccc1-c1csc(C(C)Nc2nc(C)nc3cc(OC)c(OC)cc23)c1 | 7.79 | 3.7 | < 3.16 | < 3.16 | < 3.16 | 21.4 | 14.4 | 11.6 | 3.5 | 15.1 | 16.1 | 10.9 | 2.1 | 4.86 | 5.28 | 2.85 | 4.57 | 0.17 | 0.06 | 0.1 | viability, T/C [33]: 71%; viability, T/C [34]: 45.5%; viability, T/C [37]: 53.5%; viability, T/C [38]: 31.7%; viability, T/C [41]: 34.4%; viability, T/C [42]: 11.7%; viability, T/C [16]: 2.48%; viability, T/C [45]: 0.3%; viability, T/C [46]: 0.05%; viability, T/C [21]: 0.02%; viability, T/C [22]: 0.07%; viability, T/C [49]: 0.18%; viability, T/C [50]: 0.06%; viability, T/C [27]: 0.07%; viability, T/C [28]: 0.1% |
| COc1cc2nccc(Oc3ccc(NC(=O)C4(C(=O)Nc5ccc(F)cc5)CC4)cc3)c2cc1OC + CNCc1ccccc1-c1csc(C(C)Nc2nc(C)nc3cc(OC)c(OC)cc23)c1 | 1570 | 1640 | 596 | < 31.6 | < 31.6 | 101 | 99.5 | 95.4 | 73.3 | 97.4 | 95 | 85.5 | 79.6 | 95.4 | 93.9 | 78.4 | 0.14 | 0.09 | 0.08 | 0.07 | viability, T/C [5]: 9.71%; viability, T/C [6]: 18.6%; viability, T/C [11]: 7.07%; viability, T/C [12]: 14.3%; viability, T/C [16]: 26.9%; viability, T/C [17]: 0.88%; viability, T/C [18]: 1.04%; viability, T/C [21]: 0.12%; viability, T/C [22]: 0.04%; viability, T/C [23]: 0.12%; viability, T/C [24]: 0.08%; viability, T/C [27]: 0.08%; viability, T/C [28]: 0.24%; viability, T/C [29]: 0.07%; viability, T/C [30]: 0.13% |
| Cn1ncnc1[C@H]1c2n[nH]c(=O)c3cc(F)cc(c23)N[C@@H]1c1ccc(F)cc1 + CNCc1ccccc1-c1csc(C(C)Nc2nc(C)nc3cc(OC)c(OC)cc23)c1 | > 100 | > 100 | > 100 | < 0.316 | < 0.316 | 90.4 | 86.4 | – | – | 84.3 | 76.3 | – | – | 72.1 | 64.9 | – | 0.1 | 0.16 | 0.08 | 0.13 | viability, T/C [31]: 102%; viability, T/C [32]: 98%; viability, T/C [33]: 99.7%; viability, T/C [34]: 91.3%; viability, T/C [35]: 102%; viability, T/C [36]: 102%; viability, T/C [37]: 90.6%; viability, T/C [38]: 93.9%; viability, T/C [39]: 77.5%; viability, T/C [40]: 64.6%; viability, T/C [41]: 73.2%; viability, T/C [42]: 71.4%; viability, T/C [43]: 0.11%; viability, T/C [44]: 0.09%; viability, T/C [45]: 0.09%; viability, T/C [46]: 0.08%; viability, T/C [47]: 0.07%; viability, T/C [48]: 0.07%; viability, T/C [49]: 0.08%; viability, T/C [50]: 0.07% |
